Reference: a melting point compilation (Tetko et al.)

| Structure (SMILES) | melting point [°C] |
| --- | --- |
| COc1ccc(-n2c(SC)nc3ccccc3c2=O)cc1 | 154 to 156 |
| OCc1cc(Cl)cc(Cl)c1O | 82 to 83 |
| OCc1c(F)cccc1Cl | 43 |
| Cc1ccc(F)c([N+](=O)[O-])c1 | 28 to 30 |
| CC(=O)Nc1ccc([N+](=O)[O-])c(C(F)(F)F)c1 | 108 to 109 |
| FC(F)(F)c1ccc(Cl)c(Br)c1 | -23 to -22 |
| O=C1CC(=O)NCCNCCNCCNC(=O)CC(=O)NCCNCCNCCN1 | 199 to 202 |
| CNc1ccccc1 | -57 |
| Cn1c(/C(C#N)=N/Nc2cc(Cl)ccc2Cl)nc2ccccc21 | 245 |
| Cc1ccc(C(=O)O)cc1F | 170 to 175 |
| c1cn[nH]c1 | 68 |
| C=C=N | -78 |
| CN1N=C2c3ccccc3CCC2C1c1ccc(Cl)cc1 (stereo unspecified) | 199 to 201 |
| Ic1ccc(-c2ccc(I)cc2)cc1 | 207 |
| Cc1c(C)n(C=O)c2ccccc12 | 89 |
| Clc1c(Cl)c(Cl)c2c(oc3ccccc32)c1Cl | 169 |
| CC(=O)NCC1CN(c2ccc(N3CCOCC3)c(F)c2)C(=O)O1 (stereo unspecified) | 182 |
| N#Cc1cccc(CBr)c1 | 94 |
| Cc1cccc2cc3ccccc3cc12 | 85.5 |
| O=S(=O)(Cl)c1ccc(C(F)(F)F)cc1Cl | 37 |
| Oc1cccc(N2CCNCC2)c1 | 207 |
| NC(=O)c1cnn(CCO)c1N | 239 |
| c1ccc(C/C(=N\Nc2ccccc2)c2cccc3ccccc23)cc1 | 101 to 102 |
| COc1ccc(C(=O)c2nn(-c3ccccc3)/c(=N\N=Cc3ccccc3Cl)s2)cc1 | 181 |
| Cc1c(Cl)cccc1Nc1ncccc1C(=O)O | 234 |
| N#Cc1ccncc1Br | 93 |

| Structure (SMILES) | melting point [°C] |
| --- | --- |
| N#Cc1ncc(F)cc1F | 32 |
| O=c1ccc2cc([N+](=O)[O-])ccc2o1 | 190 to 192 |
| COc1ccccc1C1Nc2nc(C(F)(F)F)nn2C(N)=C1C#N (stereo unspecified) | 245 |
| CN1CCN(c2ccc(C(=O)O)cc2)CC1 | 270 |
| O=C(O)CCC(=O)Nc1ccc(S(=O)(=O)Nc2nccs2)cc1 | 194 |
| OCCN1CCN(c2ncc(C(F)(F)F)cc2Cl)CC1 | 62 to 66 |
| NNc1c2ccccc2nc2ccccc12 | 177 |
| O=C1CC(c2cccc(C3=NOC(=O)C3)c2)=NO1 | 190 |
| O=C(O)CCc1cc(I)c(Oc2ccc(O)c(I)c2)c(I)c1 | 200 |
| O=C1C=CC(=O)[C@@H]2CC3=C(CC4=C(C3)C[C@H]3C(=O)C=CC(=O)[C@H]3C4)C[C@H]12 | 335 to 340 |
| O=Cc1ccc2c(c1[N+](=O)[O-])C(=O)c1c(Cl)c(Cl)c(Cl)c(Cl)c1C2=O | 265 to 268 |
| Cn1nc(C(=O)Cl)cc1-c1cccs1 | 48 to 49 |
| Cc1cccc(C(N)=O)c1C | 157 |
| O=C(c1ccccc1)c1ccc(F)c(C(F)(F)F)c1 | 46 |
| COCC(=O)N(c1c(C)cccc1C)N1CCOC1=O | 104 |
| O=C(Nc1nc2ccccc2s1)C(F)(F)C(F)(F)C(F)(F)C(F)(F)C(F)(F)C(F)(F)C(F)(F)C(F)(F)F | 168 to 170 |
| O=C1CCCN1c1ccc(F)cc1 | 55 to 58 |
| Cc1ccc(Cl)c(CO)c1F | 57 |
| C#CC1(OC(N)=O)CCCCC1 | 96 |
| Cc1cccc2cccc(C)c12 | 65 |
| N#CC(C#N)=c1c(F)c(F)c(=C(C#N)C#N)c(F)c1F | 291 |
| C#CC(C)(O)CC (stereo unspecified) | 30.5 |
| Cc1cccc(C(=O)Cl)c1C | 2 |
| CC(=O)Oc1cccc2cccnc12 | 55 |
| Clc1ccc(C(c2ccccc2)N2CCNCC2)cc1 (stereo unspecified) | 65 to 75 |
| CSc1nc2cc(NCc3ccc(Cl)cc3)ccc2[nH]1 | 248 |

| Structure (SMILES) | melting point [°C] |
| --- | --- |
| O=C(Nc1ccc2cc(OC(=O)c3ccccc3)ccc2c1)c1ccccc1 | 224 to 229 |
| O=C1C=CC(=O)N1c1ccc(Nc2ccccc2)c2ccccc12 | 207 |
| CC(=O)C(C(C)=O)=C1SCCCS1 | 91 |
| Oc1ccc(Cl)c2ccccc12 | 117 to 120 |
| O=C(Nc1nc(-c2ccccc2)cs1)c1ccccc1 | 123 |
| O=C(O)c1ccccc1CS(=O)c1ccccc1 (stereo unspecified) | 185 to 187 |
| Cc1c(C(=O)O)[nH]c2ccccc12 | 162 to 163 |
| Cc1cc(F)ccc1[N+](=O)[O-] | 20 |
| CS(=O)(=O)CN1C(=O)NC(c2ccccc2)(c2ccccc2)C1=O | 196 to 197 |
| Cn1c(S)nnc1-c1ccccc1 | 188 |
| Brc1c2ccccc2c(Br)c2ccccc12 | 226 |
| O=NN1CCCC1c1cccnc1 (stereo unspecified) | 47 |
| CC1=NN(c2ccccc2)C(=O)C1C(=O)c1ccccc1 (stereo unspecified) | 90 to 92 |
| C=CC[C@H](NC(=O)OCC1c2ccccc2-c2ccccc21)C(=O)O | 137 |
| O=C(NNC(=O)c1ccc(Cl)cc1)c1ccc(Cl)cc1 | 260 |
| O=[N+]([O-])c1ccc(Cl)cc1[N+](=O)[O-] | 40 to 41 |
| CC(/C=C(C)/C=C/c1ccccc1)=NNS(=O)(=O)c1ccc(C)cc1 | 138 to 142 |
| Nc1ccc([N+](=O)[O-])c(C(=O)O)c1 | 234 to 242 |
| O=[N+]([O-])c1ccc(-c2cn3c(n2)sc2ccccc23)cc1 | 285 to 286 |
| O=CCCl | -16.3 |
| COC(=O)C(C)Cl (stereo unspecified) | -10 |
| O=C(O)C(O)C(O)C(O)C(O)C(=O)O (stereo unspecified) | 230 |
| N#Cc1ccc(F)c(Br)c1 | 56 |
| Cc1nc(-c2ccccn2)nc(Cl)c1Cl | 127 to 129 |

Second part, the compound after the results:

| melting point [°C] | Structure (SMILES) |
| --- | --- |
| 221 | CC12CCC(C(=O)OC1=O)C2(C)C (stereo unspecified) |
| -4 | Cc1ccnc(C)n1 |
| 36 | COc1ccc(OC)c(N=C=S)c1 |
| 146 to 149 | CCCCCn1c(O)nnc1S |
| 193 to 194 | CC(C)(C)OC(=O)NCc1nnc(S)n1C1CC1 |
| 106 | CN(CC(=O)O)C(=O)COC(=O)c1ccccc1 |
| 29 | CCc1ccccc1Nc1ccccc1CC |
| 121 to 123 | Cc1ccc(COc2ccc(CC#N)cc2)cc1 |
| 92 | Cc1cc2ccccc2cc1COC(=O)C(F)(F)F |
| 81 to 82 | CC(=O)c1c(C)cn(C)c1C |
| 158 to 160 | NNC(=S)NCc1ccc2c(c1)OCO2 |
| 133 | CCOc1ccccc1C(N)=O |
| -3.1 | COC(=O)CCCCCCC(=O)OC |
| 39 to 40 | COC(=O)c1sccc1Cl |
| 77 to 79 | COCc1nnc(S)s1 |
| 132 to 134 | CCOC(=O)CCC(C)C1CCC2C3C(=O)C(Br)C4CC(OC(C)=O)CCC4(C)C3CC(OC(C)=O)C12C (stereo unspecified) |
| 43 to 46 | CCCCCCCCCC1(C)N=C(c2ccccc2)C=[N+]1[O-] (stereo unspecified) |
| 145 | CCOC(=O)Nc1ccc2cc3ccc(NC)c(CO)c3nc2c1 |
| 70 | CCOC(=O)C(C#N)=C(SC)SC |
| 49 | CCCCCCCCCCCCCCCCCN |
| 155 | Cc1ccc(S(=O)(=O)N(C)Cc2ccc(N)cc2)cc1 |
| 130 | CCCCCCNC(=O)COC(=O)c1ccccc1 |
| 62 to 63 | COc1c(C#N)cc(C)c2c1CCC2 |
| 14 | CCC#CCCCCC(=O)O |
| 62.5 | CCCCCCCCNC(C)C(O)c1ccc(SC(C)C)cc1 (stereo unspecified) |
| 136 | Cc1ccc2c(c1)OC(C)(c1ccc(C)cc1OC(=O)[C@]13CC[C@](C)(C(=O)O1)C3(C)C)CC2(C)C (stereo partly specified) |
| 260 | NCCC(=O)N[C@@H](Cc1c[nH]cn1)C(=O)O |
| -73 | COC(CCl)OC |

| melting point [°C] | Structure (SMILES) |
| --- | --- |
| -51 | CCO[Si](Cl)(OCC)OCC |
| -37 | CC(C)S(=O)(=O)O |
| 49 | CC(=O)OCC(=O)c1ccccc1 |
| 228 | CCNc1nc(Cl)nc(NCC(=O)OCC)n1 |
| 143 | COC(=O)c1ccc(O)c(N)c1 |
| 257 | NCCNC(=O)C(=O)NCc1ccccn1 |
| 36 | C#CCCCCCCCCCCCCCCCCCC |
| 156 | CCOC(=O)Nc1ccc2c(c1)N(C(=O)CCN1CCOCC1)c1ccccc1S2 |
| 117 | COc1ccc2[nH]cc(CCNC(C)=O)c2c1 |
| 22.3 | Cc1cc(C)c(O)c(C(C)(C)C)c1 |
| 58.5 | Cc1ccc(N=C=Nc2ccc(C)cc2)cc1 |
| -20 | CN(C)c1ccccc1[N+](=O)[O-] |
| 260 to 263 | Cc1csc(-c2cn(C(C)C)c(=O)n(CC(=O)NN)c2=O)n1 |
| 101 | CC1CCC(C)(COC(=S)Nc2ccccc2)C1(C)C (stereo unspecified) |
| 120 to 121 | CC(C)CN1C(=O)N2CCc3ccccc3C2(c2ccc(Cl)cc2)C1=O (stereo unspecified) |
| 187 | Cc1cc(C)c(P(c2c(C)cc(C)cc2C)c2c(C)cc(C)cc2C)c(C)c1 |
| -80 | CN(C)CCOCCN(C)C |
| -67 | CCCCCCCCOC(=O)CCCCCCCCC(=O)OCCCCCCCC |
| 96 | COC1=C(OC)C(C(O)CBr)OC1=O (stereo unspecified) |
| -33 | CCCC(=O)CCC |
| 205 | CN(C)NN=C1N=CN=C1C(N)=O |
| 256 to 258 | CCOC(=O)C12C(c3cc(Cl)ccc3OP1(=O)OCC)C1(C(=O)OCC)C2c2cc(Cl)ccc2OP1(=O)OCC (stereo unspecified) |
| 164 | CN(C)c1ccc(C=C2C3=C(CCCC3)OC3=C2CCCC3)cc1 |
| 131 to 133 | CN(N)c1cnn(C)c(=O)c1Cl |
| 55 | CC(C)(C)OC(=O)NCCCC(=O)O |
| 61.5 | CC(C)(C)OC(=O)N[C@H](COCc1ccccc1)C(=O)O |
| 80 | Cc1c(C)c(C)c(S(=O)(=O)Cl)c(C)c1C |
